Key:
[1] = target: T1, Melanin-concentrating hormone receptor 1 (Homo sapiens, UniProt Q99705); test: Displacement of [125I]MCH from human MCHR1 expressed in HEK293 cells; assay type: cell-based
[2] = target: T1, Melanin-concentrating hormone receptor 1; test: Antagonist activity at human MCHR1 expressed in HEK293 cells assessed as [35S]GTPgammaS accumulation; assay type: functional, cell-based
[3] = Fraction unbound in human plasma; assay type: ADME, cell-free
Liver microsomes = test: Metabolic stability in human liver microsomes; assay type: ADME, Microsome
Mus musculus = test: Intrinsic clearance in C57BL mouse at 20 uM/kg, iv; assay type: ADME, organism-based; settings: in vivo

T1 sequence (Q99705 whole entry): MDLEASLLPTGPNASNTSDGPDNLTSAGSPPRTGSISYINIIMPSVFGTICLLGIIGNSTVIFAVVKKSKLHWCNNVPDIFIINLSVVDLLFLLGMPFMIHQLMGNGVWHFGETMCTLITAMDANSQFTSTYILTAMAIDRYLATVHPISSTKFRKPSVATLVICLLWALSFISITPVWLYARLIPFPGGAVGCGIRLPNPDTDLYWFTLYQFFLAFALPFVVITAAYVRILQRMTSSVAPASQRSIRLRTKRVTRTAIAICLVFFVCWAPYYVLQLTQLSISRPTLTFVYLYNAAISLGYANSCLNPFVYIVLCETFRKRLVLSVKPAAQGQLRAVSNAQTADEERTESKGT

Row | IC50 [1] [nM] | IC50 [2] [nM] | Compound | also measured
1 | 2260 | – | O=C(COc1ccc(F)c(F)c1)N[C@H]1CC[C@H](Nc2ccn(-c3ccc(C(F)(F)F)cc3)c2)C1 | –
2 | 66 | – | Fc1ccc(-c2cc(C3CCN(Cc4ccn(-c5ccc(C(F)(F)F)cc5)c4)CC3)on2)cc1 | –
3 | 2340 | – | O=C(COc1cccc(Cl)c1)NC1CCN(Cc2ccc3[nH]ccc3c2)CC1 | –
4 | 710 | – | O=C(COc1cccc(Cl)c1)NC1CCN(Cc2ccn(-c3ccccc3)c2)CC1 | –
5 | 82 | 505 | O=C(COc1cccc(Cl)c1)NC1CCN(Cc2cc3c(cc2Cl)OCO3)CC1 | –
6 | 26 | 71 | Cc1c(-c2ccccc2)[nH]c(=O)n1C1CCN(Cc2ccn(-c3ccc(C(F)(F)F)cc3)c2)CC1 | –
7 | 111 | – | O=C(COc1cccc(Cl)c1)N[C@H]1[C@@H]2CN(Cc3ccn(-c4ccc(C(F)(F)F)cc4)c3)C[C@@H]21 | –
8 | 113 | – | Fc1ccc(-c2ncc(C3CCN(Cc4ccn(-c5ccc(C(F)(F)F)cc5)c4)CC3)[nH]2)cc1 | –
9 | 92 | 804 | O=C(NC1CCN(Cc2ccc(Cl)c(Cl)c2)CC1)c1csc([N+](=O)[O-])c1 | –
10 | 636 | – | FC(F)(F)c1ccc(-n2ccc(CN3CCC(NCCOc4cccc(Cl)c4)CC3)c2)cc1 | –
11 | 25 | 67 | Fc1ccc(-c2cc(C3CCN(Cc4ccn(-c5ccc(C(F)(F)F)cc5)c4)CC3)no2)cc1 | –
12 | 297 | – | O=C(COc1cccc(Cl)c1)NC1CCN(Cc2cccc(-n3cccc3)c2)CC1 | –
13 | 78 | 103 | O=C(COc1cccc(Cl)c1)NC1CCN(Cc2ccc(-c3ccc(OC(F)(F)F)cc3)o2)CC1 | –
14 | 2140 | – | O=C(COc1cccc(Cl)c1)NC1CCN(Cc2cn(-c3ccc(C(F)(F)F)cc3)cn2)CC1 | –
15 | 104 | – | O=C(COc1ccc(F)c(F)c1)N[C@H]1CC[C@@H](Nc2ccn(-c3ccc(C(F)(F)F)cc3)c2)CC1 | –
16 | 903 | – | O=C(COc1cccc(Cl)c1)NC1CCN(Cc2ccc3c(c2)OCCO3)CC1 | –
17 | 3050 | – | O=C(COc1cccc(Cl)c1)NC1CCCN(Cc2ccn(-c3ccc(C(F)(F)F)cn3)c2)C1 (stereo not given) | –
18 | 48 | 92 | O=C(COc1cccc(Cl)c1)NC1CCN(Cc2ccn(-c3ccc(C(F)(F)F)cn3)c2)CC1 | –
19 | 109 | – | CN(C(=O)COc1cccc(Cl)c1)C1CCN(Cc2ccn(-c3ccc(C(F)(F)F)cc3)c2)CC1 | –
20 | 52 | 145 | N#Cc1ccc(-n2ccc(CN3CCC(NC(=O)COc4cccc(Cl)c4)CC3)c2)cc1 | –

Row | IC50 [1] [nM] | IC50 [2] [nM] | Compound | also measured
21 | 37 | 58 | Fc1ccc(-c2cc(C3CCN(Cc4ccn(-c5ccc(C(F)(F)F)cc5)c4)CC3)n[nH]2)cc1 | –
22 | 927 | – | O=C(COc1cccc(Cl)c1)NC1CCN(Cc2ccc(-c3ccc(C(F)(F)F)cn3)o2)CC1 | –
23 | 100 | 90 | COc1ccc(-n2ccc(CN3CCC(NC(=O)COc4cccc(Cl)c4)CC3)c2)cc1 | –
24 | 169 | – | Cc1cccc(OCC(=O)NCC2CN(Cc3ccn(-c4ccc(C(C)(C)C)cn4)c3)C2)c1 | –
25 | 347 | – | O=C(COc1cccc(Cl)c1)NC1CCN(Cc2csc(-c3ccc(Cl)cc3)n2)CC1 | –
26 | 269 | – | O=C(COc1ccc(F)c(F)c1)NCC1CN(Cc2ccn(-c3ccc(C(F)(F)F)cc3)c2)CCO1 (stereo not given) | –
27 | 1500 | – | O=C(COc1cccc(Cl)c1)NC1CCN(Cc2ccn(-c3ccon3)c2)CC1 | –
28 | 20 | 122 | Fc1ccc(-c2c[nH]c(C3CCN(Cc4ccn(-c5ccc(C(F)(F)F)cc5)c4)CC3)n2)cc1 | –
29 | 9650 | – | Cc1cc(CN2CCC(NC(=O)COc3cccc(Cl)c3)CC2)c(C)n1-c1ccccc1 | –
30 | – | – | O=C(COc1cccc(Cl)c1)NC1CCN(Cc2ccn(-c3ccc(C(F)(F)F)cc3)c2)CC1 | fraction unbound [3]: 0.012; clearance (Liver microsomes): 38 µL/min/mg; CL (Mus musculus): 41 mL/min/kg
31 | 42 | 73 | O=C(COc1cccc(Cl)c1)NC1CN(Cc2ccn(-c3ccc(C(F)(F)F)cc3)c2)C1 | –
32 | 41 | 104 | O=C(COc1cccc(Cl)c1)NC1CCN(Cc2ccc3ccccc3c2)CC1 | –
33 | 313 | – | O=C(COc1cccc(Cl)c1)NCC1CCN(Cc2ccn(-c3ccc(C(F)(F)F)cn3)c2)CC1 | –
34 | 303 | – | O=C(COc1cccc(Cl)c1)NCC1CCCN(Cc2ccn(-c3ccc(C(F)(F)F)cn3)c2)C1 (stereo not given) | –
35 | 1250 | – | O=C(COc1cccc(Cl)c1)N1CCC(Nc2ccn(-c3ccc(C(F)(F)F)cn3)c2)CC1 | –
36 | 31 | 15 | O=C(COc1cccc(Cl)c1)NC1CCN(Cc2ccn(-c3ccc(OC(F)(F)F)cc3)c2)CC1 | fraction unbound [3]: 0.032; clearance (Liver microsomes): 21 µL/min/mg; CL (Mus musculus): 34 mL/min/kg
37 | 120 | – | O=C(COc1cccc(Cl)c1)NC1CCN(Cc2ccc(-c3ccccn3)cc2)CC1 | –
38 | 29 | 48 | O=C(COc1ccc(F)c(F)c1)NC1CCN(Cc2ccn(-c3ccc(C(F)(F)F)cc3)c2)C1 (stereo not given) | –
39 | 43 | 117 | CC(c1ccn(-c2ccc(C(F)(F)F)cc2)c1)N1CCC(NC(=O)COc2cccc(Cl)c2)CC1 (stereo not given) | –

Row | Compound | IC50 [1] [nM] | IC50 [2] [nM] | also measured
40 | O=C(COc1cccc(Cl)c1)NC1CCN(Cc2ccn(C3CCCC3)c2)CC1 | > 33000 | – | –

Reference: ChEMBL document CHEMBL1156734, “Discovery of 1,3-disubstituted-1H-pyrrole derivatives as potent melanin-concentrating hormone receptor 1 (MCH-R1) antagonists” (Bioorg Med Chem Lett, 2008)
